# Assay results as given in US10100058B2, “Fused heterocyclic compounds as CaM kinase inhibitors” (Gilead Sciences, Inc., priority 2016, dated 2018).
# Target: recombinant CaMKIIδ (Homo sapiens (Human), UniProt Q13557)
# Assay: CaMKIIδ biochemical assay (HTRF)
# Details: 10 pM CaMKIIδ, 110 nM calmodulin, 12 μM ATP, 1 hour; read-out: CAMKIID-HTRF-384V2 (IC50 - nM)
# Protocol: CaMKIIδ Biochemical Assay
# The biochemical activity of recombinant CaMKIIδ was measured by monitoring the phosphorylation of a target peptide using Homogenous Time Resolved Fluorescence (HTRF) technology from CisBio Bioassays.
row,SMILES,IC50 [nM]
1,"CC[C@@H](CNC(=O)c1cc(-c2cnn3ccc(-c4cccs4)nc23)nc(N2CC[C@H]2C(=O)NC)c1)N(CC)CC (single isomer, unassigned) [Example 356A]",0.31
2,"CC[C@H](CNC(=O)c1cc(-c2cnn3ccc(-c4cccs4)nc23)nc(N2CC[C@H]2C(=O)NC)c1)N(CC)CC (single isomer, unassigned) [Example 356B]",3.04
3,"NCC1CC(F)(F)CN1C(=O)c1ccnc(-c2cnn3ccc(-c4cccs4)nc23)c1 (stereo in doubt) [Example 78, (S)-(2-(aminomethyl)-4,4-difluoropyrrolidin-1-yl)(2-(5-(thiophen-2-yl)pyrazolo[1,5-a]pyrimidin-3-yl)pyridin-4-yl)methanone]",9.44
4,"CCN(CC)[C@@H](C)CNC(=O)c1cc(-c2cnn3ccc(-c4cccs4)nc23)nc(N2CCC(C#N)C2)c1 (stereo in doubt) [Example 313, 2-((S)-3-cyanopyrrolidin-1-yl)-N—((S)-2-(diethylamino)propyl)-6-(5-(thiophen-2-yl)pyrazolo[1,5-a]pyrimidin-3-yl)isonicotinamide]",0.18
5,"COC1CN(c2cc(C(=O)N3C4CC[C@@H]3CCNC4)cc(-c3cnn4ccc(-c5ccccc5)nc34)n2)C1 (stereo in doubt) [Example 330, (-3,9-diazabicyclo[4.2.1]nonan-9-yl)(2-(3-methoxyazetidin-1-yl)-6-(5-phenylpyrazolo[1,5-a]pyrimidin-3-yl)pyridin-4-yl)methanone]",44.6
6,"O=C(NCC12CCCN1CCC2)c1ccnc(-c2cnn3ccc(-c4cccs4)nc23)c1 [Example 3, N-((hexahydro-1H-pyrrolizin-7a-yl)methyl)-2-(5-(thiophen-2-yl)pyrazolo[1,5-a]pyrimidin-3-yl)isonicotinamide]",5.55
7,"O=C(NC[C@@H]1C[C@H](F)CN1)c1ccnc(-c2cnn3ccc(-c4cccs4)nc23)c1 [Example 5, N-(((2S,4S)-4-fluoropyrrolidin-2-yl)methyl)-2-(5-(thiophen-2-yl)pyrazolo[1,5-a]pyrimidin-3-yl)isonicotinamide]",12.7
8,"O=C(NC[C@@H]1CCN1)c1ccnc(-c2cnn3ccc(-c4cccs4)nc23)c1 [Example 7, (S)—N-(azetidin-2-ylmethyl)-2-(5-(thiophen-2-yl)pyrazolo[1,5-a]pyrimidin-3-yl)isonicotinamide]",6.05
9,"O=C(NC[C@H]1CCN1)c1ccnc(-c2cnn3ccc(-c4cccs4)nc23)c1 [Example 8, (R)—N-(azetidin-2-ylmethyl)-2-(5-(thiophen-2-yl)pyrazolo[1,5-a]pyrimidin-3-yl)isonicotinamide]",10
10,"CN(C)CCNC(=O)c1ccnc(-c2cnn3ccc(-c4cccs4)nc23)c1 [Example 9, N-(2-(dimethylamino)ethyl)-2-(5-(thiophen-2-yl)pyrazolo[1,5-a]pyrimidin-3-yl)isonicotinamide]",26
11,"CCC[C@@]1(CNC(=O)c2ccnc(-c3cnn4ccc(-c5cccs5)nc34)c2)CCCN1 [Example 10, (S)—N-((2-propylpyrrolidin-2-yl)methyl)-2-(5-(thiophen-2-yl)pyrazolo[1,5-a]pyrimidin-3-yl)isonicotinamide]",9.8
12,"CC[C@@]1(CNC(=O)c2ccnc(-c3cnn4ccc(-c5cccs5)nc34)c2)CCCN1 [Example 11, (S)—N-((2-ethylpyrrolidin-2-yl)methyl)-2-(5-(thiophen-2-yl)pyrazolo[1,5-a]pyrimidin-3-yl)isonicotinamide]",10.7
13,"C[C@@]1(CNC(=O)c2ccnc(-c3cnn4ccc(-c5cccs5)nc34)c2)CCCN1 [Example 12, (S)—N-((2-methylpyrrolidin-2-yl)methyl)-2-(5-(thiophen-2-yl)pyrazolo[1,5-a]pyrimidin-3-yl)isonicotinamide]",14.9
14,"C[C@@H](NC(=O)c1ccnc(-c2cnn3ccc(-c4cccs4)nc23)c1)[C@@H]1CCCN1 [Example 13, N—((R)-1-((S)-pyrrolidin-2-yl)ethyl)-2-(5-(thiophen-2-yl)pyrazolo[1,5-a]pyrimidin-3-yl)isonicotinamide]",153
15,"C[C@@H](CNC(=O)c1ccnc(-c2cnn3ccc(-c4cccs4)nc23)c1)NCC(F)F [Example 14, (S)—N-(2-((2,2-difluoroethyl)amino)propyl)-2-(5-(thiophen-2-yl)pyrazolo[1,5-a]pyrimidin-3-yl)isonicotinamide]",23.8
16,"CCN(CC(F)F)[C@@H](C)CNC(=O)c1ccnc(-c2cnn3ccc(-c4cccs4)nc23)c1 [Example 15, (S)—N-(2-((2,2-difluoroethyl)(ethyl)amino)propyl)-2-(5-(thiophen-2-yl)pyrazolo[1,5-a]pyrimidin-3-yl)isonicotinamide]",8.34
17,"O=C(NCC1CCCCCN1)c1ccnc(-c2cnn3ccc(-c4cccs4)nc23)c1 (centres unmarked) [Example 16, N-(azepan-2-ylmethyl)-2-(5-(thiophen-2-yl)pyrazolo[1,5-a]pyrimidin-3-yl)isonicotinamide]",60
18,"CC(C)C[C@@]1(CNC(=O)c2ccnc(-c3cnn4ccc(-c5cccs5)nc34)c2)CCCN1 [Example 17, (R)—N-((2-isobutylpyrrolidin-2-yl)methyl)-2-(5-(thiophen-2-yl)pyrazolo[1,5-a]pyrimidin-3-yl)isonicotinamide]",7.47

row,SMILES,IC50 [nM]
1,"O=C(NC[C@]1(CC2CC2)CCCN1)c1ccnc(-c2cnn3ccc(-c4cccs4)nc23)c1 [Example 18, (R)—N-((2-(cyclopropylmethyl)pyrrolidin-2-yl)methyl)-2-(5-(thiophen-2-yl)pyrazolo[1,5-a]pyrimidin-3-yl)isonicotinamide]",6.51
2,"O=C(NCC1CCCCN1)c1ccnc(-c2cnn3ccc(-c4cccs4)nc23)c1 (centres unmarked) [Example 19, N-(piperidin-2-ylmethyl)-2-(5-(thiophen-2-yl)pyrazolo[1,5-a]pyrimidin-3-yl)isonicotinamide]",89.3
3,"CCN[C@@H](C)CNC(=O)c1ccnc(-c2cnn3ccc(-c4cccs4)nc23)c1 [Example 20, (S)—N-(2-(ethylamino)propyl)-2-(5-(thiophen-2-yl)pyrazolo[1,5-a]pyrimidin-3-yl)isonicotinamide]",4.97
4,"C[C@@H](CNC(=O)c1ccnc(-c2cnn3ccc(-c4cccs4)nc23)c1)NCCO [Example 21, (S)—N-(2-((2-hydroxyethyl)amino)propyl)-2-(5-(thiophen-2-yl)pyrazolo[1,5-a]pyrimidin-3-yl)isonicotinamide]",27.8
5,"C[C@H](N)CNC(=O)c1ccnc(-c2cnn3ccc(-c4cccs4)nc23)c1 [Example 22, (S)—N-(2-aminopropyl)-2-(5-(thiophen-2-yl)pyrazolo[1,5-a]pyrimidin-3-yl)isonicotinamide]",13.9
6,"CCCN[C@@H](C)CNC(=O)c1ccnc(-c2cnn3ccc(-c4cccs4)nc23)c1 [Example 23, (S)—N-(2-(propylamino)propyl)-2-(5-(thiophen-2-yl)pyrazolo[1,5-a]pyrimidin-3-yl)isonicotinamide]",14.6
7,"C[C@@H](CNC(=O)c1ccnc(-c2cnn3ccc(-c4cccs4)nc23)c1)NCCF [Example 24, (S)—N-(2-((2-fluoroethyl)amino)propyl)-2-(5-(thiophen-2-yl)pyrazolo[1,5-a]pyrimidin-3-yl)isonicotinamide]",7.88
8,"C[C@@H](CNC(=O)c1ccnc(-c2cnn3ccc(-c4cccs4)nc23)c1)NCC1CC1 [Example 26, (S)—N-(2-((cyclopropylmethyl)amino)propyl)-2-(5-(thiophen-2-yl)pyrazolo[1,5-a]pyrimidin-3-yl)isonicotinamide]",10.7
9,"C[C@@H](CNC(=O)c1ccnc(-c2cnn3ccc(-c4cccs4)nc23)c1)NCC(F)F [Example 27, (S)—N-(2-((2,2-difluoroethyl)amino)propyl)-2-(5-(thiophen-2-yl)pyrazolo[1,5-a]pyrimidin-3-yl)isonicotinamide]",18.4
10,"C[C@@H](CNC(=O)c1ccnc(-c2cnn3ccc(-c4cccs4)nc23)c1)NCC(F)(F)F [Example 28, (S)-2-(5-(thiophen-2-yl)pyrazolo[1,5-a]pyrimidin-3-yl)-N-(2-((2,2,2-trifluoroethyl)amino)propyl)isonicotinamide]",53.4
11,"CCN[C@H](CC)CNC(=O)c1ccnc(-c2cnn3ccc(-c4cccs4)nc23)c1 [Example 29, (R)—N-(2-(ethylamino)butyl)-2-(5-(thiophen-2-yl)pyrazolo[1,5-a]pyrimidin-3-yl)isonicotinamide]",7.72
12,"CCN[C@@H](CC)CNC(=O)c1ccnc(-c2cnn3ccc(-c4cccs4)nc23)c1 [Example 30, (S)—N-(2-(ethylamino)butyl)-2-(5-(thiophen-2-yl)pyrazolo[1,5-a]pyrimidin-3-yl)isonicotinamide]",3.67
13,"CCC(CNC(=O)c1ccnc(-c2cnn3ccc(-c4cccs4)nc23)c1)NC(C)C (centres unmarked) [Example 31, N-(2-(isopropylamino)butyl)-2-(5-(thiophen-2-yl)pyrazolo[1,5-a]pyrimidin-3-yl)isonicotinamide]",12.1
14,"CC(C)N[C@@H](C)CNC(=O)c1ccnc(-c2cnn3ccc(-c4cccs4)nc23)c1 [Example 32, (S)—N-(2-(isopropylamino)propyl)-2-(5-(thiophen-2-yl)pyrazolo[1,5-a]pyrimidin-3-yl)isonicotinamide]",18
15,"CCN[C@H](C)CNC(=O)c1ccnc(-c2cnn3ccc(-c4cccs4)nc23)c1 [Example 33, (R)—N-(2-(ethylamino)propyl)-2-(5-(thiophen-2-yl)pyrazolo[1,5-a]pyrimidin-3-yl)isonicotinamide]",8.44
16,"O=C(NC[C@@H]1CCCN1)c1ccnc(-c2cnn3ccc(-c4cccs4)nc23)c1 [Example 34, (S)—N-(pyrrolidin-2-ylmethyl)-2-(5-(thiophen-2-yl)pyrazolo[1,5-a]pyrimidin-3-yl)isonicotinamide]",12.4
17,"CN1CCC[C@H]1CNC(=O)c1ccnc(-c2cnn3ccc(-c4cccs4)nc23)c1 [Example 35, (S)—N-((1-methylpyrrolidin-2-yl)methyl)-2-(5-(thiophen-2-yl)pyrazolo[1,5-a]pyrimidin-3-yl)isonicotinamide]",95.5
